Source: patent US5703085A, “Xanthine derivatives” (Kyowa Hakko Kogyo Co., Ltd., priority 1994, dated 1997)
Where two headings read alike, the source gives them in different places.

What was measured:
[1] = target: T1, A2 Receptor (Rattus norvegicus, UniProt P30543); assay: Adenosine A2 receptor binding test (inhibition of 3H-CGS 21680 binding); conditions: rat corpus striatum, 3H-CGS 21680 4.0 nM
T1 construct: from tissue; host or cells: rat corpus striatum (membrane suspension)
Method: Adenosine Receptor Antagonistic Activity (Adenosine A2 Receptor Binding Test)
The test was conducted according to the method of Bruns et al. [Mol. Pharmacol., 29, 331 (1986)] with slight modification.
Corpus striatum of a rat was suspended in ice-cooled 50 mM Tris (hydroxymethyl) aminomethane hydrochloride (Tris HCl) buffer (pH 7.7) by using Polytron homogenizer (manufactured by Kinematica Co.). The suspension was centrifuged (50,000×g, 10 minutes), and the precipitate was suspended again in the same amount of 50 mM Tris HCl buffer. The suspension was centrifuged under the same conditions, and the final precipitate was suspended in 50 mM Tris HCl buffer [containing 10 mM magnesium chloride and 0.02 unit/mg tissue of adenosine deaminase (manufactured by Sigma Co.)] to give a tissue concentration of 5 mg (wet weight)/ml.
To 1 ml of the tissue suspension thus prepared were added 50 μl of tritium labeled CGS 21680 {^3 H-2-[p-(2-carboxyethyl) phenethylamino]-5'-(N-ethylcarboxamide)-adenosine: 40 Ci/mmol; manufactured by New England Nuclear Co. [J. Pharmacol. Exp. Ther., 251, 888 (1989)]} (final concentration: 4.0 nM) and 50 μl of a test compound. The resulting mixture was allowed to stand at 25° C. for 120 minutes and then rapidly filtered by suction through a glass fiber filter (GF/C; manufactured by Whatman Co.). The filter was immediately washed three times with 5 ml each of ice-cooled 50 mM Tris HCl buffer, and transferred to a vial, and a scintillator (EX-H; manufactured by Wako Pure Chemical Industries, Ltd.) was added thereto. The radioactivity on the filter was determined with a liquid scintillation counter (manufactured by Packard Instrument Co.).
The inhibition rate of the test compound against the binding of A2 receptors (^3 H-CGS 21680 binding) was calculated by the following equation: [formula] [Notes]B: Amount of the binding in the presence of the test compound.
T: Amount of the total binding.
N: Amount of the nonspecific binding.
Amount of the total binding means the amount of radioactivity of ^3 H-CGS 21680 bound in the absence of the test compound. Amount of the nonspecific binding means the amount of radioactivity of ^3 H-CGS 21680 bound in the presence of 100 μM cyclopentyladenosine (CPA; manufactured by Sigma Co.). Amount of the binding in the presence of the test compound means the amount of radioactivity of ^3 H-CGS 21680 bound in the presence of the test compound at various levels of concentrations.

[2] = Effect on haloperidol-induced catalepsy; format: in vivo, male ddY mice; conditions: 10 mg/kg po; for Total Score (catalepsy): 1 h after compound; for inhibition in vivo at 10 mg/kg: Mus musculus, 1 h, decrease in total score vs control group, read-out: Remission Rate (%)
Method: Effect on Haloperidol-Induced Catalepsy
Parkinson's disease is a clinical syndrome caused by degeneration and cell death of nigrostriatal dopaminergic neurons. Administration of haloperidol (dopamine D1 /D2 antagonist) induces catalepsy resulting from the blockade of postsynaptic dopamine D2 receptors.
The experiment was carried out using several groups of 5-week-old male ddY mice (weighing 22 to 24 g, Japan SLC), each group consisting of 5 or 10 mice. Haloperidol (manufactured by Janssen Pharmaceutica) was suspended in 0.3% CMC and imtraperitoneally administered to each mouse at a dose of 1.0 mg/kg. A test compound was suspended in injectable distilled water (manufactured by Otsuka Pharmaceutical Co., Ltd.) after adding Tween 80 [polyoxyethylene (20) sorbitan monooleate]. L-DOPA (manufactured by Kyowa Hakko Kogyo Co., Ltd.) and benserazide hydrochloride (manufactured by Kyowa Hakko Kogyo Co., Ltd.) were suspended in 0.3% CMC. One hour after the intraperitoneal administration of haloperidol, the suspension containing the test compound or the suspension containing no test compound [injectable distilled water (manufactured by Otsuka Pharmaceutical Co., Ltd.) containing Tween 80; control] were orally administered to the separate groups of the mice (0.1 ml per 10 g of body weight). One hour after the administration of the test compound, the forelimbs of each mouse and subsequently the hindlimbs of the same mouse were placed on a 4.5 cm-high, 1.0 cm-wide bar and catalepsy was estimated. All of the test compounds were orally administered at a dose of 10 mg/kg, and L-DOPA (100 mg/kg) and benserazide (25 mg/kg) were intraperitoneally administered together as a control. The catalepsy score and the standard of judgment are shown below. […]
Score Duration of the category
0: forelimbs less than 5 seconds
hindlimbs less than 5 seconds
1: forelimbs from 5 (inclusive)
to 10 (exclusive) seconds
2: forelimbs 10 seconds or more
3: (1) forelimbs from 5 (inclusive)
hindlimbs from 5 (inclusive)
or (2) forelimbs less than 5 seconds
hindlimbs 5 seconds or more
4: (1) forelimbs 10 seconds or more
or (2) forelimbs from 5 (inclusive)
hindlimbs 10 seconds or more
5: forelimbs 10 seconds or more
The effect of the compounds was evaluated by the total of the catalepsy scores of 5 or 10 mice in each group (25 or 50 points at the maximum). The groups wherein the total score was not more than 20 or 40 points were estimated to be effective. The number of the animals showing remission against catalepsy is the number of the mice for which the catalepsy score was not more than 4 points in 5 or 10 mice.

[3] = Effect on clonidine-induced aggressive behavior; format: in vivo, male ddY mice; conditions: 2.5 mg/kg, po, clonidine 20 mg/kg ip
Method: Effect on Clonidine-Induced Aggressive Behavior
The enhancement effect of the test compounds on the aggressive behavior induced by intraperitoneal administration of clonidine [Eur. J. Pharmacol., 29, 374 (1968)] was investigated.
The experiment was performed using several groups of male ddY mice weighing 20 to 25 g (Japan SLC), each group consisting of two mice. A test compound was suspended in injectable distilled water (manufactured by Otsuka Pharmaceutical Co., Ltd.) after adding Tween 80. Clonidine hydrochloride (manufactured by Sigma Co.) was dissolved in physiological saline solution (manufactured by Otsuka Pharmaceutical Co., Ltd.). The suspension containing the test compound and the suspension containing no test compound (control) were orally administered to the separate groups of the mice (0.1 ml per 10 g of body weight). Sixty minutes after the oral administration of the test compound, clonidine hydrochloride (20 mg/kg) was intraperitoneally administered. The number of biting attacks during the 30 minutes immediately after the clonidine treatment was counted. The effect of the compounds was evaluated by comparing the number of biting attacks of the test compound-administered groups with that of control groups (significance test: Student' t-test).

[4] = out of 10 mice (score not more than 4)

T1 sequence (P30543 whole entry): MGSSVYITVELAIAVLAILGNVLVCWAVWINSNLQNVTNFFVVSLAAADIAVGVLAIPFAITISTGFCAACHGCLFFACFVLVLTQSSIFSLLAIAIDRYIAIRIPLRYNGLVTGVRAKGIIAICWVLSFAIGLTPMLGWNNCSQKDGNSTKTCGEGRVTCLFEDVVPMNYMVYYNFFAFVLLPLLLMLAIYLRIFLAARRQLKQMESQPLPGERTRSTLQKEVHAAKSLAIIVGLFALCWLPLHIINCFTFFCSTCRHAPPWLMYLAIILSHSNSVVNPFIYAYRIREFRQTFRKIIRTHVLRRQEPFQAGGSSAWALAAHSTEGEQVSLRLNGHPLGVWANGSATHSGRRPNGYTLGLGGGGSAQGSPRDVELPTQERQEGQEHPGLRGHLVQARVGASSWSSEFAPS

CCn1c(=O)c2c(nc(/C=C/c3cccc(OC)c3OC(C)=O)n2C)n(CC)c1=O [Compound 25, (E)-8-(2-Acetoxy-3-methoxystyryl)-1,3-diethyl-7-methylxanthine]
A2 Receptor Inhibition Rate (%) ([1]; 10^-6 M): 101% | A2 Receptor Inhibition Rate (%) ([1]; 10^-7 M): 95%

CCn1c(=O)c2c(nc(/C=C/c3cccc(OC(=O)c4ccccc4)c3)n2C)n(CC)c1=O [Compound 22, (E)-8-(3-Benzoyloxystyryl)-1,3-diethyl-7-methylxanthine]
A2 Receptor Inhibition Rate (%) ([1]; 10^-6 M): 99% | A2 Receptor Inhibition Rate (%) ([1]; 10^-7 M): 92%

CCn1c(=O)c2c(nc(/C=C/c3cccc(OC(C)=O)c3OC(C)=O)n2C)n(CC)c1=O [Compound 26, (E)-8-(2,3-Diacetoxystyryl)-1,3-diethyl-7-methylxanthine]
A2 Receptor Inhibition Rate (%) ([1]; 10^-6 M): 101% | A2 Receptor Inhibition Rate (%) ([1]; 10^-7 M): 75%

CCCn1c(=O)c2c(nc(/C=C/c3cc(OC(C)=O)cc(OC(C)=O)c3)n2C)n(CCC)c1=O [Compound 9, (E)-8-(3,5-Diacetoxystyryl)-7-methyl-1,3-dipropylxanthine]
A2 Receptor Inhibition Rate (%) ([1]; 10^-6 M): 96% | A2 Receptor Inhibition Rate (%) ([1]; 10^-7 M): 88%

CCCn1c(=O)c2c(nc(/C=C/c3ccc(OC(C)=O)c(OC(C)=O)c3)n2C)n(CCC)c1=O [Compound 1, (E)-8-(3,4-Diacetoxystyryl)-7-methyl-1,3-dipropylxanthine]
A2 Receptor Inhibition Rate (%) ([1]; 10^-6 M): 93% | A2 Receptor Inhibition Rate (%) ([1]; 10^-7 M): 89%

CCn1c(=O)c2c(nc(/C=C/c3ccc(OC(=O)c4ccccc4)c(OC)c3)n2C)n(CC)c1=O [Compound 7, (E)-8-(4-Benzoyloxy-3-methoxystyryl)-1,3-diethyl-7-methylxanthine]
Total Score (catalepsy) ([2]; 5 mice (max 25 points; control 25)): 14 | Number of Animals Showing Remission ([2]; out of 5 mice (score not more than 4)): 3 | inhibition in vivo at 10 mg/kg ([2]; 5 mice): 44% | A2 Receptor Inhibition Rate (%) ([1]; 10^-6 M): 97% | A2 Receptor Inhibition Rate (%) ([1]; 10^-7 M): 87%

C=CCn1c(=O)c2c(nc(/C=C/c3cc(OC)c(OC(C)=O)c(OC)c3)n2C)n(CC=C)c1=O [Compound 19, (E)-8-(4-Acetoxy-3,5-dimethoxystyryl)-1,3-diallyl-7-methylxanthine]
A2 Receptor Inhibition Rate (%) ([1]; 10^-6 M): 96% | A2 Receptor Inhibition Rate (%) ([1]; 10^-7 M): 91%

CCn1c(=O)c2c(nc(/C=C/c3cc(OC)c(OC(=O)c4ccccc4)c(OC)c3)n2C)n(CC)c1=O [Compound 18, (E)-8-(4-Benzoyloxy-3,5-dimethoxystyryl)-1,3-diethyl-7-methylxanthine]
Total Score (catalepsy) ([2]; 10 mice (max 50 points)): 30 | Number of Animals Showing Remission [2, 4]: 7 | inhibition in vivo at 10 mg/kg ([2]; 10 mice): 40% | A2 Receptor Inhibition Rate (%) ([1]; 10^-6 M): 97% | A2 Receptor Inhibition Rate (%) ([1]; 10^-7 M): 82%

CCn1c(=O)c2c(nc(/C=C/c3cccc(OC(C)=O)c3)n2C)n(CC)c1=O [Compound 21, (E)-8-(3-Acetoxystyryl)-1,3-diethyl-7-methylxanthine]
A2 Receptor Inhibition Rate (%) ([1]; 10^-6 M): 96% | A2 Receptor Inhibition Rate (%) ([1]; 10^-7 M): 81%

CCn1c(=O)c2c(nc(/C=C/c3cc(OC)ccc3OC(C)=O)n2C)n(CC)c1=O [Compound 23, (E)-8-(2-Acetoxy-5-methoxystyryl)-1,3-diethyl-7-methylxanthine]
A2 Receptor Inhibition Rate (%) ([1]; 10^-6 M): 101% | A2 Receptor Inhibition Rate (%) ([1]; 10^-7 M): 90%

CCn1c(=O)c2c(nc(/C=C/c3ccc(OC)c(OC(C)=O)c3)n2C)n(CC)c1=O [Compound 16, (E)-8-(3-Acetoxy-4-methoxystyryl)-1,3-diethyl-7-methylxanthine]
A2 Receptor Inhibition Rate (%) ([1]; 10^-6 M): 96% | A2 Receptor Inhibition Rate (%) ([1]; 10^-7 M): 81%

C=CCn1c(=O)c2c(nc(/C=C/c3ccc(OC(C)=O)c(OC)c3)n2C)n(CC=C)c1=O [Compound 15, (E)-8-(4-Acetoxy-3-methoxystyryl)-1,3-diallyl-7-methylxanthine]
A2 Receptor Inhibition Rate (%) ([1]; 10^-6 M): 91% | A2 Receptor Inhibition Rate (%) ([1]; 10^-7 M): 85%

CCn1c(=O)c2c(nc(/C=C/c3ccc(OC(=O)C(C)(C)C)c(OC)c3)n2C)n(CC)c1=O [Compound 13, (E)-1,3-Diethyl-8-(3-methoxy-4-pivaloyloxystyryl)-7-methylxanthine]
Total Score (catalepsy) ([2]; 10 mice (max 50 points)): 14 | Number of Animals Showing Remission [2, 4]: 9 | inhibition in vivo at 10 mg/kg ([2]; 10 mice): 72% | Ratio of Attacks: Test Compd.-Treated Group/Control Group [3]: 10.1 | Number of the Biting Attacks (mean ± S.E.M.), Test Compound-Treated Group ([3]; 30 min count): 24.3 ± 6.6

CCn1c(=O)c2c(nc(/C=C/c3cc(OC)c(OC(C)=O)c(OC)c3)n2C)n(CC)c1=O [Compound 17, (E)-8-(4-Acetoxy-3,5-dimethoxystyryl)-1,3-diethyl-7-methylxanthine]
Total Score (catalepsy) ([2]; 10 mice (max 50 points)): 30 | Number of Animals Showing Remission [2, 4]: 7 | inhibition in vivo at 10 mg/kg ([2]; 10 mice): 40% | A2 Receptor Inhibition Rate (%) ([1]; 10^-6 M): 97% | A2 Receptor Inhibition Rate (%) ([1]; 10^-7 M): 80%

CCCn1c(=O)c2c(nc(/C=C/c3ccc(OC)c(OC(C)=O)c3)n2C)n(CCC)c1=O [Compound 3, (E)-8-(3-Acetoxy-4-methoxystyryl)-7-methyl-1,3-dipropylxanthine]
A2 Receptor Inhibition Rate (%) ([1]; 10^-6 M): 96% | A2 Receptor Inhibition Rate (%) ([1]; 10^-7 M): 61%
